Patent publication US6432688B1, “Amino alcohol dehydrogenase converts keto alcohol to amino alcohol and amino alcohol to keto alcohol” (Daicel Chemical Industries, Ltd., priority 1999, dated 2002)

Key:
[1] = test system: amino alcohol dehydrogenase derived from Streptomyces virginiae IFO 12827; test: Substrate specificity, relative activity to various substrates
Description: Based on this reaction, the amino alcohol dehydrogenase activity i n the crude enzyme solution was spectroscopically determined by measuring the change of absorbance at 490 nm. One unit of enzymewas defined as the amount of the enzyme producing 1 μmol formazan in 1 min under the above condition.

[2] = test system: amino alcohol dehydrogenase obtained in Example 7; test: Enzyme reaction: conversion of substrates, product analysed by GC, HPLC or GC-MS; assay type: biochemical, Streptomyces virginiae IFO 12827; details: 0.5 unit enzyme, 25° C., 48 hours; reductive: 10 mM NADH, 0.2M NH4Cl, pH 8.0; oxidative: 10 mM NAD+, pH 9.0
Description: The amino alcohol dehydrogenase (0.5 unit) obtained in Example 7 was added to 2 ml of a mixture containing 5 mM hydroxyacetone, 10 mM NADH, 0.2M NH4Cl, 0.1 M Tris-HCl buffer (pH 8.0), and the resulting reaction mixture was incubated at 25° C. for 48 hours. The product was analyzed by gas chromatography with a FID detector (column, TENAX TA (3.2 mm×1 m); injection and detection temperature, […]; N2 flow rate, 50 ml/min; column temperature, gradient from 150 to 180° C. (5° C./min); retained at 180° C. for 10 min). […] The retention time of 2-amino-1-propanol was completely the same as that of the standard compound.
The same reaction system as used in 1) except for using oxalacetic acid as a substrate in place of hydroxyacetone was incubated at 25° C. for 48 hours. The produced amino acid was converted into an o-phthalaldehyde (OPA) derivative by OPA-derivatization method. The derivative was analyzed by high-performance liquid chromatography (column, CAPCELL PAC C18 AG120 (4.6 mm×25 cm, Shiseido); detection, 340 nm; column temperature, 45° C.; mobile phase flow rate, 1 ml/ min; concentration gradient elution, a) 10 mM sodium phosphate buffer (pH 6.8) to b) acetonitrile:10 mM sodium phosphate buffer (pH 6.8) =2:1).
The amino alcohol dehydrogenase (0.5 unit) was added to a mixture of 2 mM 1-phenethylamine, 10 mM NAD^+ and 0.1, M Tris-HCl buffer (pH 9.0), and the resulting reaction solution was incubated at 25° C. for 48 hours. The reaction solution was adjusted to pH 10.0 with NaOH and extracted with an equivalent volume of ethyl acetate.

[3] = target: T1, alanine dehydrogenase (derived from Bacillus stearothermophilius, Seikagaku Corporation) (Geobacillus stearothermophilus, UniProt P17557); test: Reactivity of commercially available alanine dehydrogenase (NADH at 340 nm); assay type: biochemical; details: 1 mM NAD+, 10 mM substrate, 0.1 M Tris-HCl pH 8.0, 0.02 unit enzyme, 25° C.
T1 construct: purchased Seikagaku Corporation
T1 sequence (P17557 whole entry): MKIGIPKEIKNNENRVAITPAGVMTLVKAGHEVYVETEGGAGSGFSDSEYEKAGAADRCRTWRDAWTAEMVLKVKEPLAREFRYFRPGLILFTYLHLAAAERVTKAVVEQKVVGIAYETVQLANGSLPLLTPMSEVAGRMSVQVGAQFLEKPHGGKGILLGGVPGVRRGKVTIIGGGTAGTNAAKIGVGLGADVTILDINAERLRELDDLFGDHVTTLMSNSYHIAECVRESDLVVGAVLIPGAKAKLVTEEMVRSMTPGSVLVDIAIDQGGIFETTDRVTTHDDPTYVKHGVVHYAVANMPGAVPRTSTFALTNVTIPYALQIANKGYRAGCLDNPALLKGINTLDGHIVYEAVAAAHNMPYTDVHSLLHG
Description: (§1) Known NAD(H)-dependent amino acid dehydrogenases reportedly act on only keto acids and amino acids as substrates (Experiments of Biochemistry, Vol. 11, ed. by Japan Society of Biochemistry, Amino acid metabolism and biological amine (I) 193-218, J. Org. Chem. 55, 5567, 1990; Fermentation and Industry 40, 301-311, 1982). […] Reactivity of a commercially available alanine dehydrogenase to amino alcohols was examined. Reaction was performed at 25° C. for several min in a reaction solution containing 1 mM NAD^+, 10 mM of each substrate, 0.1 M Tris-HCl buffer (pH 8.0), and 0.02 unit of alanine dehydrogenase (derived from Bacillus stearothermophilius, Seikagaku Corporation). NADH produced was spectroscopically measured at 340 nm.

[4] = test system: L-glutamate dehydrogenase derived from microorganism (Toyobo); test: Reactivity of L-glutamate dehydrogenase derived from microorganism; assay type: biochemical; details: same experiment as Comparison Example 1
Description: as §1
The same experiment as Comparison Example 1 was conducted using L-glutamate dehydrogenase derived from microorganism (Toyobo), and that derived from bovine liver (Lifetech Oriental).

[5] = test system: amino alcohol dehydrogenase derived from Streptomyces virginiae IFO 12827; test: Km values in reductive amination and oxidative deamination; assay type: biochemical
[6] = test system: amino alcohol dehydrogenase derived from Streptomyces virginiae IFO 12827; test: Coenzyme dependence; assay type: biochemical
[7] = Substrate (Amino alcohols), activity to serinol as 100%, TABLE 3
[8] = Substrate (Amino alcohols), activity to serinol as 100%, TABLE 3 printed a second time
[9] = Substrate (Amines), TABLE 5 printed a fourth time
[10] = Substrate (Amines), TABLE 5 printed a second time
[11] = Substrate (Amines), TABLE 5 printed a third time
[12] = oxidative deamination reaction (pH 9.0, Tris-HCl buffer)
[13] = reductive amination reaction (pH 7.0, phosphate buffer)

| Molecule | Relative activity (%) [1, 7] [%] | Relative activity (%) [1, 8] [%] | Relative activity (%) ([1]; Substrate (Amines), TABLE 5) | Relative activity (%) [1, 9] [%] | Relative activity (%) [1, 10] [%] | Relative activity (%) [1, 11] [%] | also measured |
| --- | --- | --- | --- | --- | --- | --- | --- |
| CCCC(N)CO (racemic) [DL-2-amino-1-pentanol] | 103 | 103 |  |  |  |  |  |
| CCC(N)CO (single isomer, unassigned; (+)) [(+)-2-amino-1-butanol] | 109 | 109 |  |  |  |  |  |
| CC(N)CCc1ccccc1 (centres unmarked) [1-methyl-3-phenylpropylamine] |  |  | 152 | 152 | 152 | 152 |  |
| CC(N)c1ccccc1 (centres unmarked) [1-phenethylamine] |  |  |  |  |  |  | conversion by the enzyme [2]: the enzyme converts amine into ketone |
| CC(C)(N)CO [2-amino-2-methyl-1-propanol] | 115 | 115 |  |  |  |  |  |
| Nc1ncccc1O [2-amino-3-hydroxypyridine] | 136 | 136 |  |  |  |  |  |
| NC1CCCCC1O (centres unmarked) [2-aminocyclohexanol] | 113 | 113 |  |  |  |  |  |
| CCCC(C)N (centres unmarked) [2-aminopentane] |  |  | 252 | 252 | 252 | 252 |  |
| CCC(N)CC [3-aminopentane] |  |  | 270 | 270 | 270 | 270 |  |
| C[C@@H](N)c1ccccc1 [(R)-1-phenethylamine] |  |  | 127 | 127 | 127 | 127 |  |
| CC[C@@H](C)N [(R)-2-aminobutane] |  |  | 127 | 127 | 127 | 127 |  |
| CCCCC[C@@H](C)N [(R)-2-aminoheptane] |  |  | 91 | 91 | 91 | 91 |  |
| CC(C)[C@H](N)CO [(S)-(+)-2-amino-3-methyl-1-butanol] | 43 | 43 |  |  |  |  |  |
| CC(C)C[C@H](N)CO [(S)-(+)-leucinol] | 105 | 105 |  |  |  |  |  |
| N[C@H](CO)Cc1ccccc1 [(S)-(−)-2-amino-3-phenyl-1-propanol] | 120 | 120 |  |  |  |  |  |
| CSCC[C@H](N)CO [L-(−)-methioninol] | 85 | 85 |  |  |  |  |  |

| Molecule | Relative activity (%) [1, 7] [%] | Relative activity (%) [1, 8] [%] | Relative activity (%) ([1]; Substrate (Amines), TABLE 5) | Relative activity (%) [1, 9] [%] | Relative activity (%) [1, 10] [%] | Relative activity (%) [1, 11] [%] | also measured |
| --- | --- | --- | --- | --- | --- | --- | --- |
| C[C@H](N)C(=O)O [L-alanine] |  |  |  |  |  |  | enzyme acts on substrate [3]: acted on |
| N[C@@H](CCC(=O)O)C(=O)O [L-glutamic acid] |  |  |  |  |  |  | enzyme acts on substrate [4]: acted on |
| NC(=O)c1ccc[n+]([C@@H]2O[C@H](COP(=O)([O-])OP(=O)(O)OC[C@H]3O[C@@H](n4cnc5c(N)ncnc54)[C@H](O)[C@@H]3O)[C@@H](O)[C@H]2O)c1 [NAD^+] |  |  |  |  |  |  | Km [5, 12]: 840 µM |
| Cl.N [NH4Cl] |  |  |  |  |  |  | Km [5, 13]: 25000 µM |
| COS(=O)(=O)[O-].C[n+]1c2ccccc2nc2ccccc21 [PMS, phenazinementasulfate, reference compound] |  |  |  |  |  |  | use as coenzyme / electron acceptor [6]: does not use |
| NCc1ccccc1 [benzylamine] |  |  | 134 | 134 | 134 | 134 |  |
| CC(=O)CO [hydroxyacetone] |  |  |  |  |  |  | conversion by the enzyme [2]: production of 2-amino-1-propanol was detected |
| CC[C@H](C)[C@H](N)CO [isoleucinol] | 113 | 113 |  |  |  |  |  |
| CCCCN [n-butylamine] |  |  | 170 | 170 | 170 | 170 |  |
| CCCCCCN [n-hexylamine] |  |  | 173 | 173 | 173 | 173 |  |
| CCCCCCCCN [n-octylamine] |  |  | 114 | 114 | 114 | 114 |  |
| O=C(O)CC(=O)C(=O)O [oxalacetic acid] |  |  |  |  |  |  | conversion by the enzyme [2]: peak of the product, aspartic acid was observed |
| NC(CO)CO [serinol] | 100 | 100 |  |  |  |  | Km [5, 12]: 4000 µM |
| NAD(H) |  |  |  |  |  |  | use as coenzyme / electron acceptor [6]: dependent |
| NADH |  |  |  |  |  |  | Km [5, 13]: 22 µM |
| NADP(H) |  |  |  |  |  |  | use as coenzyme / electron acceptor [6]: does not use |
